The test system of this assay is KM12 cells. The assay can be described thus: Cell viability assay (CellTiter-Glo) in KM12 cells. As to conditions: Homo sapiens, 72 h; Table 3; KM12 cell viability, CellTiter-Glo, 3 days; read-out: IC50. Format: cell-based. On the technique in general: In ATP-based viability assays light output follows the ATP content of the culture.
The term IC50 denotes the concentration that gives 50% inhibition. Take `O=C(CN1CCN(c2ccc(C(=O)Nc3n[nH]c4ccc(Cc5cc(F)cc(F)c5)cc34)c(NC3CCOCC3)c2)CC1)NCCCCCNc1ccc2c(c1)C(=O)N(C1CCC(=O)NC1=O)C2=O` (stereo not drawn) [TR-164, N-(5-(3,5-Difluorobenzyl)-1H-indazol-3-yl)-4-(4-(2-((5-((2-(2,6-dioxopiperidin-3-yl)-1,3-dioxoisoindolin-5-yl)amino)pentyl)amino)-2-oxoethyl)piperazin-1-yl)-2-((tetrahydro-2H-pyran-4-yl)amino)benzamide]: the concentration for half-maximal inhibition (IC50) was found to be 7.8 nM.

Turning to `O=C(CN1CCN(c2ccc(C(=O)Nc3n[nH]c4ccc(Cc5cc(F)cc(F)c5)cc34)c(NC3CCOCC3)c2)CC1)NCCNc1ccc2c(c1)C(=O)N(C1CCC(=O)NC1=O)C2=O` (stereo not drawn) [TR-165, N-(5-(3,5-Difluorobenzyl)-1H-indazol-3-yl)-4-(4-(2-((2-((2-(2,6-dioxopiperidin-3-yl)-1,3-dioxoisoindolin-5-yl)amino)ethyl)amino)-2-oxoethyl)piperazin-1-yl)-2-((tetrahydro-2H-pyran-4-yl)amino)benzamide], the IC50 stood at 3.5 nM. Under `O=C(CN1CCN(c2ccc(C(=O)Nc3n[nH]c4ccc(Cc5cc(F)cc(F)c5)cc34)c(NC3CCOCC3)c2)CC1)NCCOCCOCCOCCOCCOCCNc1ccc2c(c1)C(=O)N(C1CCC(=O)NC1=O)C2=O` (stereo not drawn) [TR-166, N-(5-(3,5-Difluorobenzyl)-1H-indazol-3-yl)-4-(4-(20-((2-(2,6-dioxopiperidin-3-yl)-1,3-dioxoisoindolin-5-yl)amino)-2-oxo-6,9,12,15,18-pentaoxa-3-azaicosyl)piperazin-1-yl)-2-((tetrahydro-2H-pyran-4-yl)amino)benzamide] stands 4.4 nM; under `O=C(CN1CCN(c2ccc(C(=O)Nc3n[nH]c4ccc(Cc5cc(F)cc(F)c5)cc34)c(NC3CCOCC3)c2)CC1)NCCCNc1ccc2c(c1)C(=O)N(C1CCC(=O)NC1=O)C2=O` (stereo not drawn) [TR-167, N-(5-(3,5-Difluorobenzyl)-1H-indazol-3-yl)-4-(4-(2-((3-((2-(2,6-dioxopiperidin-3-yl)-1,3-dioxoisoindolin-5-yl)amino)propyl)amino)-2-oxoethyl)piperazin-1-yl)-2-((tetrahydro-2H-pyran-4-yl)amino)benzamide], 3.3 nM; under `O=C1CCC(N2C(=O)c3ccc(NCCCC(=O)N4CCN(c5cccc(-c6cnc7ccc(N8CCC[C@@H]8c8cccc(F)c8)nn67)n5)CC4)cc3C2=O)C(=O)N1` (stereo partly drawn) [TR-168, 2-(2,6-Dioxopiperidin-3-yl)-5-((4-(4-(6-(6-((R)-2-(3-fluorophenyl)pyrrolidin-1-yl)imidazo[1,2-b]pyridazin-3-yl)pyridin-2-yl)piperazin-1-yl)-4-oxobutyl)amino)isoindoline-1,3-dione], 2.9 nM. Under `O=C1CCC(N2C(=O)c3ccc(NCCCC(=O)N4CCN(c5ccc(C(=O)Nc6n[nH]c7ccc(Cc8cc(F)cc(F)c8)cc67)c(NC6CCOCC6)c5)CC4)cc3C2=O)C(=O)N1` (stereo not drawn) [TR-169, N-(5-(3,5-Difluorobenzyl)-1H-indazol-3-yl)-4-(4-(4-((2-(2,6-dioxopiperidin-3-yl)-1,3-dioxoisoindolin-5-yl)amino)butanoyl)piperazin-1-yl)-2-((tetrahydro-2H-pyran-4-yl)amino)benzamide] stands 1.6 nM; under `O=C1CCC(N2C(=O)c3ccc(N4CCN(c5cccc(-c6cnc7ccc(N8CCC[C@@H]8c8cccc(F)c8)nn67)n5)CC4)cc3C2=O)C(=O)N1` (stereo partly drawn) [TR-170, 2-(2,6-Dioxopiperidin-3-yl)-5-(4-(6-(6-((R)-2-(3-fluorophenyl)pyrrolidin-1-yl)imidazo[1,2-b]pyridazin-3-yl)pyridin-2-yl)piperazin-1-yl)isoindoline-1,3-dione], 15.1 nM; under `O=C1CCC(N2C(=O)c3ccc(NC4CCN(c5cccc(-c6cnc7ccc(N8CCC[C@@H]8c8cccc(F)c8)nn67)n5)CC4)cc3C2=O)C(=O)N1` (stereo partly drawn) [TR-174, 2-(2,6-dioxopiperidin-3-yl)-5-((1-(6-(6-((R)-2-(3-fluorophenyl)pyrrolidin-1-yl)imidazo[1,2-b]pyridazin-3-yl)pyridin-2-yl)piperidin-4-yl)amino)isoindoline-1,3-dione], 18.7 nM. Under `O=C1CCC(N2C(=O)c3ccc(NC4CN(c5cccc(-c6cnc7ccc(N8CCC[C@@H]8c8cccc(F)c8)nn67)n5)C4)cc3C2=O)C(=O)N1` (stereo partly drawn) [TR-175, 2-(2,6-Dioxopiperidin-3-yl)-5-((1-(6-(6-((R)-2-(3-fluorophenyl)pyrrolidin-1-yl)imidazo[1,2-b]pyridazin-3-yl)pyridin-2-yl)azetidin-3-yl)amino)isoindoline-1,3-dione] stands 40.8 nM; under `O=C1CCC(N2C(=O)c3ccc(NCCOCCN4CCN(c5cccc(-c6cnc7ccc(N8CCC[C@@H]8c8cccc(F)c8)nn67)n5)CC4)cc3C2=O)C(=O)N1` (stereo partly drawn) [TR-176, 2-(2,6-Dioxopiperidin-3-yl)-5-((2-(2-(4-(6-(6-((R)-2-(3-fluorophenyl)pyrrolidin-1-yl)imidazo[1,2-b]pyridazin-3-yl)pyridin-2-yl)piperazin-1-yl)ethoxy)ethyl)amino)isoindoline-1,3-dione], 18 nM; under `O=C1CCC(N2C(=O)c3ccc(NCC4CCN(c5cccc(-c6cnc7ccc(N8CCC[C@@H]8c8cccc(F)c8)nn67)n5)CC4)cc3C2=O)C(=O)N1` (stereo partly drawn) [TR-178, 2-(2,6-Dioxopiperidin-3-yl)-5-(((1-(6-(6-((R)-2-(3-fluorophenyl)pyrrolidin-1-yl)imidazo[1,2-b]pyridazin-3-yl)pyridin-2-yl)piperidin-4-yl)methyl)amino)isoindoline-1,3-dione], 67.7 nM. Consider `O=C1CCC(N2C(=O)c3ccc(NCC4CN(c5cccc(-c6cnc7ccc(N8CCC[C@@H]8c8cccc(F)c8)nn67)n5)C4)cc3C2=O)C(=O)N1` (stereo partly drawn) [TR-179, 2-(2,6-Dioxopiperidin-3-yl)-5-(((1-(6-(6-((R)-2-(3-fluorophenyl)pyrrolidin-1-yl)imidazo[1,2-b]pyridazin-3-yl)pyridin-2-yl)azetidin-3-yl)methyl)amino)isoindoline-1,3-dione], for which the IC50 is 23.4 nM. Take `O=C1CCC(N2C(=O)c3ccc(NCCC4CCN(c5cccc(-c6cnc7ccc(N8CCC[C@@H]8c8cccc(F)c8)nn67)n5)CC4)cc3C2=O)C(=O)N1` (stereo partly drawn) [TR-180, 2-(2,6-Dioxopiperidin-3-yl)-5-((2-(1-(6-(6-((R)-2-(3-fluorophenyl)pyrrolidin-1-yl)imidazo[1,2-b]pyridazin-3-yl)pyridin-2-yl)piperidin-4-yl)ethyl)amino)isoindoline-1,3-dione]: the IC50 turned out to be 33.8 nM. Under `O=C1CCC(N2C(=O)c3ccc(N4CCC(N5CCN(c6cccc(-c7cnc8ccc(N9CCC[C@@H]9c9cccc(F)c9)nn78)n6)CC5)CC4)cc3C2=O)C(=O)N1` (stereo partly drawn) [TR-182, 2-(2,6-Dioxopiperidin-3-yl)-5-(4-(4-(6-(6-((R)-2-(3-fluorophenyl)pyrrolidin-1-yl)imidazo[1,2-b]pyridazin-3-yl)pyridin-2-yl)piperazin-1-yl)piperidin-1-yl)isoindoline-1,3-dione] stands 16 nM. Under `O=C1CCC(N2C(=O)c3ccc(C#CCN4CCN(c5cccc(-c6cnc7ccc(N8CCC[C@@H]8c8cccc(F)c8)nn67)n5)CC4)cc3C2=O)C(=O)N1` (stereo partly drawn) [TR-183, 2-(2,6-Dioxopiperidin-3-yl)-5-(3-(4-(6-(6-((R)-2-(3-fluorophenyl)pyrrolidin-1-yl)imidazo[1,2-b]pyridazin-3-yl)pyridin-2-yl)piperazin-1-yl)prop-1-yn-1-yl)isoindoline-1,3-dione] stands 129 nM.

The record behind these values is patent US12065442B2, “Tropomyosin receptor kinase (TRK) degradation compounds and methods of use” (Cullgen (Shanghai), Inc., priority 2018, dated 2024).
